≈ marks a conversion by molar mass, not a printed value. One block for each molecule: values may come before it. Calls of active or inactive are those of the source. The calls are words filed in the database; no cut-off is given here.
Experiments:
[1] = target: T1, Transient receptor potential cation channel subfamily V member 1 (Rattus norvegicus, UniProt O35433); assay: Antagonist activity at rat TRPV1 expressed in HEK293 cells assessed as inhibition of capsaicin-induced calcium flux; format: functional, cell-based
[2] = target: T2, Transient receptor potential cation channel subfamily V member 1 (Homo sapiens, UniProt Q8NER1); assay: Antagonist activity at human TRPV1 expressed in HEK293 cells assessed as inhibition of capsaicin-induced calcium flux; format: functional, cell-based
[3] = Aqueous solubility in fasted-state simulated intestinal fluid at pH 6.8 after 3 days by HPLC; format: physicochemical
[4] = Aqueous solubility in simulated gastric fluid at pH 1.2 after 3 days by HPLC; format: physicochemical
[5] = tested on: Rattus norvegicus; assay: Clearance in fasted Sprague-Dawley rat at 1 mg/kg, iv and 5 mg/kg, po; format: ADME, organism-based; details: in vivo
[6] = Volume of distribution at steady state in fasted Sprague-Dawley rat at 1 mg/kg, iv and 5 mg/kg, po; format: ADME, organism-based; details: in vivo, read-out: Vdss
[7] = Half life in fasted Sprague-Dawley rat at 1 mg/kg, iv and 5 mg/kg, po; format: ADME, organism-based; details: in vivo
[8] = Cmax in fasted Sprague-Dawley rat at 5 mg/kg, po; format: ADME, organism-based; parameters: dose 5 mg/kg, route oral; details: in vivo
[9] = Tmax in fasted Sprague-Dawley rat at 5 mg/kg, po; format: ADME, organism-based; parameters: dose 5 mg/kg, route oral; details: in vivo
[10] = tested on: Rattus norvegicus; assay: AUC (0 to infinity) in fasted Sprague-Dawley rat at 5 mg/kg, po; format: ADME, organism-based, Plasma; parameters: time infinity, dose 5 mg/kg, route oral; details: in vivo
[11] = tested on: Rattus norvegicus; assay: Bioavailability in fasted Sprague-Dawley rat at 1 mg/kg, iv and 5 mg/kg, po; format: ADME, organism-based; details: in vivo
[12] = target: T2, Transient receptor potential cation channel subfamily V member 1; assay: Antagonist activity at human TRPV1 expressed in HEK293 cells assessed as inhibition of low pH-induced calcium influx; format: functional, cell-based
[13] = target: T1, Transient receptor potential cation channel subfamily V member 1; assay: Antagonist activity at rat TRPV1 expressed in HEK293 cells assessed as inhibition of low pH-induced calcium influx; format: functional, cell-based
[14] = target: T1, Transient receptor potential cation channel subfamily V member 1; assay: Displacement of [3H]RTX from rat TRPV1 expressed in HEK293 cells; format: cell-based
[15] = tested on: Rattus norvegicus; assay: Analgesic activity in rat model assessed as inhibition of carrageenan-induced thermal hyperalgesia at 30 mg/kg, po administered 1 hr prior carrageenan challenge relative to control; format: functional, organism-based; parameters: dose 30 mg/kg
[16] = tested on: Rattus norvegicus; assay: Analgesic activity in rat model assessed as inhibition of carrageenan-induced thermal hyperalgesia at 3 mg/kg, po administered 1 hr prior carrageenan challenge relative to control; format: functional, organism-based; parameters: dose 3 mg/kg
[17] = tested on: Rattus norvegicus; assay: Analgesic activity in rat model assessed as inhibition of carrageenan-induced thermal hyperalgesia at 1 mg/kg, po administered 1 hr prior carrageenan challenge relative to control; format: functional, organism-based; parameters: dose 1 mg/kg
[18] = tested on: Rattus norvegicus; assay: Analgesic activity in rat model assessed as inhibition of carrageenan-induced thermal hyperalgesia at 0.3 mg/kg, po administered 1 hr prior carrageenan challenge relative to control; format: functional, organism-based; parameters: dose 0.3 mg/kg
[19] = tested on: Rattus norvegicus; assay: Analgesic activity in rat model assessed as maximum degree of inhibition of carrageenan-induced thermal hyperalgesia at 3 mg/kg, po administered 1 hr prior carrageenan challenge measured after 4 hrs; format: functional; parameters: scale not given: the % may be the effect or the level left
[20] = tested on: Rattus norvegicus; assay: Analgesic activity against carrageenan-induced thermal hyperalgesia in po dosed rat model assessed as paw withdrawal latency; format: functional, organism-based
[21] = tested on: Rattus norvegicus; assay: Analgesic activity in po dosed rat model assessed as inhibition of carrageenan-induced thermal hyperalgesia administered 1 hr prior carrageenan challenge; format: functional
[22] = Plasma concentration in carrageenan-induced thermal hyperalgesia rat model at 0.3 mg/kg, po after 5 hrs post-carrageenan injection; format: ADME, organism-based; parameters: dose 0.3 mg/kg, route oral
[23] = Plasma concentration in carrageenan-induced thermal hyperalgesia rat model at 1 mg/kg, po after 5 hrs post-carrageenan injection; format: ADME, organism-based; parameters: dose 1 mg/kg, route oral
[24] = Plasma concentration in carrageenan-induced thermal hyperalgesia rat model at 3 mg/kg, po after 5 hrs post-carrageenan injection; format: ADME, organism-based; parameters: dose 3 mg/kg, route oral
[25] = Plasma concentration in carrageenan-induced thermal hyperalgesia rat model at 30 mg/kg, po after 5 hrs post-carrageenan injection; format: ADME, organism-based; parameters: dose 30 mg/kg, route oral
[26] = target: Transient receptor potential cation channel subfamily V member 1 (Rattus norvegicus) (UniProt O35433); assay: Antagonist activity at rat TRPV1 assessed as fold increase in EC50 of capsaicin-induced isometric contraction in rat bladder at 100 nM; format: functional
[27] = species on record: Rattus norvegicus; assay: Suppression of KCl-induced rat bladder contraction at 100 nM; format: functional, tissue-based; details: Urinary bladder

T2 sequence (Q8NER1 whole entry): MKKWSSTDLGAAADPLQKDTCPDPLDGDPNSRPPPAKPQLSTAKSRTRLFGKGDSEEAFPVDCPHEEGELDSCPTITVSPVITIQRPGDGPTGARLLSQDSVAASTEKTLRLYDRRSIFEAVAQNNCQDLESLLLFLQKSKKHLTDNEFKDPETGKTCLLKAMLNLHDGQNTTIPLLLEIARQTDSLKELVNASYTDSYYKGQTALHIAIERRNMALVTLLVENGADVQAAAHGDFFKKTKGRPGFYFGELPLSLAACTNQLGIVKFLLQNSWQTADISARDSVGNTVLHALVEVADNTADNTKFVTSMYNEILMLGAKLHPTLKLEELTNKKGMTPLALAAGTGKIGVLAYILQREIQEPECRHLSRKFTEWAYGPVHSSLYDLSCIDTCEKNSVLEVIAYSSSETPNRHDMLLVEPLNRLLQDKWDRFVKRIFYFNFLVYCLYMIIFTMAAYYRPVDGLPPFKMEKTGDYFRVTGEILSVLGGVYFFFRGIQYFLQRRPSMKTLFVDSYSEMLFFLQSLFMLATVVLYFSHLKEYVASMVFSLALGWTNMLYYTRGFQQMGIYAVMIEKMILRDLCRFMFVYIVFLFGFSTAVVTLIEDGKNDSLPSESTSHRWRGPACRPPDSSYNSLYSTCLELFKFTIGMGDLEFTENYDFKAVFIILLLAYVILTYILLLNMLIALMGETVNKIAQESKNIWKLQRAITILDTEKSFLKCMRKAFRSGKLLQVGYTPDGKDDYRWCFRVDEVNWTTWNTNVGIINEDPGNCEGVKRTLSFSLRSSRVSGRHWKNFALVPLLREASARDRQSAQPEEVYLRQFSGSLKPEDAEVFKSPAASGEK
T1 sequence (O35433 whole entry): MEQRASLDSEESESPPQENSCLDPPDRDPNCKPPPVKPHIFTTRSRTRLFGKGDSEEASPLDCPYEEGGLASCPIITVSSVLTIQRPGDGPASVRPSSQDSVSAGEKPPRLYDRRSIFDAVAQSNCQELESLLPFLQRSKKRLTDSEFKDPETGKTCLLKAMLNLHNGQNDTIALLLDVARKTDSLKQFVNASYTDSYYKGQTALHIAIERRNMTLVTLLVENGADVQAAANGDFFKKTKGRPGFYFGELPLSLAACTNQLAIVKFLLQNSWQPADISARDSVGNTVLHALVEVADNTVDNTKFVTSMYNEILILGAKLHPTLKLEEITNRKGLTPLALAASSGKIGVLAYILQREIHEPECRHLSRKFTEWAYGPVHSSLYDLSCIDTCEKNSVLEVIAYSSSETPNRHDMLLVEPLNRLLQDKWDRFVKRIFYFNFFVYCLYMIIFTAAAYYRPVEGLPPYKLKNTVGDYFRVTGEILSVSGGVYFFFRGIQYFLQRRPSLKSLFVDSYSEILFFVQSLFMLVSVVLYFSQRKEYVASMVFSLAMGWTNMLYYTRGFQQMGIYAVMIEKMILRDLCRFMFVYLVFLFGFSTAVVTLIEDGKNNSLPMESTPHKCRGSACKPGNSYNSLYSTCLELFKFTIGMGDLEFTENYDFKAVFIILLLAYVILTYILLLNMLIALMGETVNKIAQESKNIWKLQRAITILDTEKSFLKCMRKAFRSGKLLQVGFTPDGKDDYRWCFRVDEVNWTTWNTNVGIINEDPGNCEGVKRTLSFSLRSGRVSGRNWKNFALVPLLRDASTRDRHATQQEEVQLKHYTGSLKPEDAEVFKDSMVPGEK
Sequence of Transient receptor potential cation channel subfamily V member 1 (Rattus norvegicus) (O35433 whole entry): as above

IC50 [1]: 2 nM
SMILES: Cc1nc(Nc2ccc(C(F)(F)F)cc2)c2nc(Nc3c(Cl)cccc3Cl)sc2n1

IC50 [2]: 31 nM
SMILES: CC(C)(C(=O)O)c1ccc(Nc2ncnc3sc(Nc4c(Cl)cccc4Cl)nc23)cc1

IC50 [2]: 51 nM
IC50 [1]: 14 nM
SMILES: Cc1ccccc1Nc1nc2c(Nc3ccc(C(F)(F)F)cc3)ncnc2s1

IC50 [2]: > 5000 nM
IC50 [1]: > 5000 nM
SMILES: FC(F)(F)c1ccc(Nc2ncnc3sc(Nc4cccc(C(F)(F)F)c4)nc23)cc1

IC50 [2]: > 5000 nM
IC50 [1]: > 5000 nM
SMILES: FC(F)(F)c1ccc(Sc2ncnc3sc(Nc4c(Cl)cccc4Cl)nc23)cc1

IC50 [2]: 59 nM
IC50 [1]: 43 nM
SMILES: CN(C)c1nc(Nc2ccc(C(F)(F)F)cc2)c2nc(Nc3c(Cl)cccc3Cl)sc2n1

IC50 [2]: 15 nM
IC50 [1]: 71 nM
SMILES: FC(F)(F)c1ccc(Nc2ncnc3c2CCN(c2ncccc2C(F)(F)F)C3)cc1

IC50 [2]: 502 nM
IC50 [1]: 540 nM
SMILES: CN(c1nc2c(Nc3ccc(C(F)(F)F)cc3)ncnc2s1)c1c(Cl)cccc1Cl

IC50 [2]: > 5000 nM
SMILES: FC(F)(F)c1ccc(Nc2ncnc3sc(Nc4ccccc4)nc23)cc1

IC50 [2]: 11 nM
SMILES: CC(C)(C)c1ccc(Nc2ncnc3sc(Nc4c(Cl)cccc4Cl)nc23)cc1

IC50 [2]: 33 nM
IC50 [1]: 32 nM
SMILES: Cc1ccc(Nc2ncnc3sc(Nc4c(Cl)cccc4Cl)nc23)cc1

IC50 [2]: 10 nM
IC50 [1]: 3 nM
SMILES: CC(C)c1ccc(Nc2ncnc3sc(Nc4c(Cl)cccc4Cl)nc23)cc1

IC50 [2]: 125 nM
IC50 [1]: 54 nM
SMILES: NCc1cc(Cl)c(Nc2nc3c(Nc4ccc(C(F)(F)F)cc4)ncnc3s2)c(Cl)c1

IC50 [2]: 9 nM
IC50 [1]: 1.6 nM
SMILES: Cc1cccc(Cl)c1Nc1nc2c(Nc3ccc(C(F)(F)F)cc3)ncnc2s1

IC50 [2]: > 5000 nM
IC50 [1]: > 5000 nM
SMILES: FC(F)(F)c1ccc(Nc2nc(N3CCNCC3)nc3sc(Nc4c(Cl)cccc4Cl)nc23)cc1

IC50 [2]: 74 nM
IC50 [1]: 37 nM
SMILES: FC(F)(F)c1ccc(Nc2ncnc3sc(Nc4ccccc4C(F)(F)F)nc23)cc1

IC50 [1]: 119 nM
SMILES: CC(C)N1CCN(c2nc(Nc3ccc(C(F)(F)F)cc3)c3nc(Nc4c(Cl)cccc4Cl)sc3n2)CC1

IC50 [2]: 23 nM
SMILES: Cc1cccc(C)c1Nc1nc2c(Nc3ccc(C(F)(F)F)cc3)ncnc2s1

IC50 [2]: 12 nM
IC50 [1]: 36 nM
SMILES: FC(F)(F)c1ccc(Nc2nc(N3CCCC3)nc3sc(Nc4c(Cl)cccc4Cl)nc23)cc1

IC50 [2]: 96 nM
IC50 [1]: 12 nM
SMILES: CSc1ccc(Nc2ncnc3sc(Nc4c(Cl)cccc4Cl)nc23)cc1

IC50 [2]: > 5000 nM
IC50 [1]: > 1000 nM
SMILES: CN(c1ccc(C(F)(F)F)cc1)c1ncnc2sc(Nc3c(Cl)cccc3Cl)nc12

IC50 [2]: 539 nM
IC50 [1]: 104 nM
SMILES: FC(F)(F)c1ccc(Nc2nc(-c3ccccc3)nc3sc(Nc4c(Cl)cccc4Cl)nc23)cc1

IC50 [2]: 274 nM
IC50 [1]: 77 nM
SMILES: CS(=O)(=O)c1nc(Nc2ccc(C(F)(F)F)cc2)c2nc(Nc3c(Cl)cccc3Cl)sc2n1

IC50 [2]: 680 nM
IC50 [1]: 864 nM
SMILES: FC(F)(F)c1ccc(Nc2ncnc3nc(Nc4c(Cl)cccc4Cl)sc23)cc1

IC50 [2]: > 5000 nM
IC50 [1]: > 5000 nM
SMILES: NC(=O)c1ccc(Nc2ncnc3sc(Nc4c(Cl)cccc4Cl)nc23)cc1

solubility at 72 h [3]: 2 µg/mL (≈ 4.38 µM)
solubility at 72 h [4]: ≤ 1 µg/mL
CL [5]: 10 mL/min/kg
Vd [6]: 1.6 L/kg
half-life [7]: 2.2 h
Cmax [8]: 1100 nM
Tmax [9]: 2 h
AUC [10]: 10000 ng·h/mL
F [11]: 43%
IC50 [12]: 19 nM
IC50 [13]: 6 nM
Ki [14]: 4 nM
concentration at 5 h [22]: 10 nM
concentration at 5 h [23]: 58 nM
concentration at 5 h [24]: 428 nM
concentration at 5 h [25]: 3050 nM
fold change (FC) [26]: 6
SMILES: FC(F)(F)c1ccc(Nc2ncnc3sc(Nc4c(Cl)cccc4Cl)nc23)cc1
Activity [15]: Active
Activity [16]: Active
Activity [17]: Active
Activity [18]: Active
Activity [19]: 57%
Activity [20]: inactive
ED50 [21]: 0.5 mg/kg
Activity [27]: inactive
